Reference: paper PMC9884426, “A phase 1 clinical trial of the repurposable acetyllysine mimetic, n-methyl-2-pyrrolidone (NMP), in relapsed or refractory multiple myeloma” (Clinical Epigenetics, 2023)
Several values for one entry are separate records, joined by “and”; a condition that tells them apart may be missing. Equal entries are not always repeated.

Legend:
[1] = test system: relapsed/refractory multiple myeloma (RR–MM); assay: Phase 1 trial of oral NMP: efficacy (IMWG response, progression-free and overall survival); type: in vivo, human
Description: This was a phase 1, open-label dose-escalation trial of orally administered NMP in patients with relapsed/refractory multiple myeloma (RR–MM). Eligible patients were ≥ 18 years old with Eastern Cooperative Oncology Group (ECOG) < 2 and histologically confirmed plasma cell myeloma defined by WHO 2008 criteria with measurable disease (defined by serum M-protein > 5 g/L, urine M-protein > 200 mg/24 h, involved serum free light chain > 100 mg/L or measurable soft tissue plasmacytoma). Patients were required to have relapsed following prior treatment and/or be refractory to or intolerant of both bortezomib and lenalidomide and must have undergone autologous stem cell transplant (unless deemed ineligible at investigator discretion). Exclusion criteria included: central nervous system involvement, active second malignancy within two years, uncontrolled medical conditions contraindicating an investigational agent due to inadequate organ function and concomitant exposure to anti-myeloma therapies.
The primary study endpoint was to determine the MTD of orally administered NMP in patients with RR–MM. Secondary endpoints included safety, PK analyses, IMWG defined response rate and exploratory immunological biomarkers. Adverse events were defined according to Common Terminology Criteria for Adverse Events (CTCAE version 4.03). Haematological DLTs were defined as grade 4 neutropenia unresponsive to G-CSF, grade 4 thrombocytopenia and febrile neutropenia. Non-haematological DLTs were grade 3 or higher and considered probably related to study drug and not attributable to disease progression and those resulting treatment delays greater than two weeks due to drug-related toxicity. Self-limited (< 24 h) gastrointestinal side effects (e.g. nausea, diarrhoea) responding to supportive measures were not classified as DLTs.
Pharmaceutical grade NMP stock solution (Ashland, Columbus, OH, USA) was diluted in ORA SWEET® SF (Medical Flavouring Systems, Vic, Australia) oral syrup vehicle and sterile water to a final concentration of 50 mg/mL and dispensed weekly in amber glass bottles for storage a room temperature. […] Intra-patient dose escalation at 100 mg increments was also permitted whereby the MTD had not been determined and the patient tolerated two consecutive cycles without DLT or an objective disease response. […]
The study was planned to recruit up to 20 patients, 15 in the dose finding cohort and five as a dose expansion. […] Time to progression was calculated from the first day of treatment to progression using the Kaplan–Meier method. Flow cytometry and gene expression data were analysed using GraphPad Prism (version 6.0; GraphPad Software, San Diego, CA). Data were analysed using Wilcoxon’s matched pairs signed rank test compared with baseline samples (*p < 0.05).

Healthy human volunteers = test system: Healthy human volunteers; parameters: method as in PMID 9029058, PMID 15458014; conditions: up to 100 mg orally and 300 mg transdermally; cited from earlier work
[2] = parameters: method as in PMID 9029058; conditions: human, after a single 100 mg oral dose of NMP; cited from earlier work

Compound: CN1CCCC1=O [NMP, N-methyl-2-pyrrolidone]
- Median overall survival ([1]; 13 RR–MM patients, 95% CI 9.7– > 44.5 months, median follow-up 43.5 months): 33.1 months and 33 months
- Median progression-free survival ([1]; 13 RR–MM patients, range 29–539 days): 57 days
- IMWG objective disease response (partial response or better), ORR ([1]; 13 patients, 95% CI 0–25%): 0%
- best response of stable disease (SD), patients ([1]; nine of 13 patients, 95% CI 39–91%): 69%
- acute adverse effects after a single dose (Healthy human volunteers): no acute adverse effects
- amount found in urine [2]: 0.8%
